Assay results: US12145947B2, “Pyrimidine based modulators and uses thereof” (Quanta Therapeutics, Inc., priority 2022, dated 2024)
Like-named read-outs stand apart in the source and are kept apart here.

What was measured:
[1] = test system: AGS cells (KRAS G12D), phospho-ERK; assay: pERK In Cell Western (ICW) assay (Method B), AGS cells; assay type: cell-based; conditions: Table 4, pERK, 3 hours, read-out: ICW-AGS
Method: (§1) pERK ICW is a high throughput screening assay to evaluate the cellular potency of mutant KRAS small molecule inhibitors. KRAS mutant cell lines AGS and GP2D (KRAS^G12D) were purchased from ATCC and maintained respectively in RPMI and DMEM medium supplemented with 10% fetal bovine serum and Penicillin/Streptomycin.
(§2) Cells grown in exponential phase were trypsinized, resuspended in fresh media, and viable cells were counted using a cell counter with Trypan Blue (BioRad TC20). Cells were seeded into 384-well plate (Greiner 781091) at density of 5,000 cells/well for AGS and 10,000 cells/well for GP2D and allowed to grow overnight in a 37° C. CO2 incubator. The next day, compounds were dispensed into wells with a ½ log, 10-point serial dilution and top concentration of […] using Tecan D300e dispenser and incubated for 3 hours in a 37° C. CO2 incubator. Cells were then fixed with paraformaldehyde (Electron Microscopy Sciences, 15710, 4% final concentration) for 30 min, permeabilized with wash buffer (1×PBS+0.1% Triton X-100) for 30 min and blocked with Odyssey blocking buffer (Li—COR 927-70001) for 1 hour, all at room temperature (RT). Phospho-ERK antibody (CST 4370L) was diluted 1:500 in Odyssey blocking+0.2% Tween 20 and incubated with cells overnight at 4° C. The next day, plates were washed 5× with wash buffer, incubated with IRDye 800 CW, Goat anti-Rabbit secondary antibody (Li—COR 926-32211, 1:500) and DRAQ5 (CST 4084L, 1:5,000) diluted in Odyssey blocking+0.2% Tween 20 for 1 hour, washed 5×, and imaged on an Odyssey CLx imaging system.
(§3) For data analysis, signal intensities from 800 (phosphor-ERK) and 700 (DRAQ5) channels were extracted, and phospho-ERK signals were normalized to DRAQ5 signals for each well and percent of DMSO control values were computed. Data were then imported into Graphpad Prism to compute half-maximal inhibitory concentrations (IC50) using a 4-parameter variable slope model. Z-factor for each plate was computed from signals derived from wells treated with either DMSO or […] of Trametinib. AGS pERK ICW (Method B) IC50 (uM) values of selected compounds are depicted in Table 2 with compounds having a value 0.001 uM to 0.01 uM as ++++; >0.01 uM to 0.1 uM as +++; >0.1 uM to 1 uM as ++; 1 uM to 10 uM as + and >10 uM as NA.

[2] = test system: GP2D cells (KRAS G12D), phospho-ERK; assay: pERK In Cell Western (ICW) assay, GP2D cells; assay type: cell-based; conditions: Table 4, 3 hours
Method: as §1, §2, §3

| SMILES | IC50 ([1]; Homo sapiens) [nM] | IC50 [2] [nM] | IC50 [1] [nM] | IC50 ([2]; listed as 74.1) [nM] |
| --- | --- | --- | --- | --- |
| CS(=O)(=O)c1cc2n(n1)CCCN(c1nc(OC[C@@]34CCCN3C[C@H](F)C4)nc(N3CC4(CCc5sc(N)c(C#N)c54)C3)c1C#N)C2 [Compound 21, 2-amino-1′-[5-cyano-2-[[(2R,8S)-2-fluoro-1,2,3,5,6,7-hexahydropyrrolizin-8-yl]methoxy]-6-(2-methylsulfonyl-4,6,7,8-tetrahydropyrazolo[1,5-a][1,4]diazepin-5-yl)pyrimidin-4-yl]spiro[5,6-dihydrocyclopenta[b]thiophene-4,3′-azetidine]-3-carbonitrile] | 100 to 1000 | 10 to 100 |  |  |
| CN(CCOc1nc(N2C[C@H]3CC[C@@H](C2)N3)c(C#N)c(N2CC3(CCc4sc(N)c(C#N)c43)C2)n1)C1CCC1 [Compound 48, 2-amino-1′-[5-cyano-2-[2-[cyclobutyl(methyl)amino]ethoxy]-6-[(1R,5S)-3,8-diazabicyclo[3.2.1]octan-3-yl]pyrimidin-4-yl]spiro[5,6-dihydrocyclopenta[b]thiophene-4,3′-azetidine]-3-carbonitrile] | 1000 to 10000 | 100 to 1000 |  |  |
| N#Cc1c(N2C[C@H]3CC[C@@H](C2)N3)nc(OCC2(CN3CCOCC3)CC2)nc1N1CC2(CCc3sc(N)c(C#N)c32)C1 [Compound 4, 2-amino-1′-[5-cyano-2-[[1-(morpholinomethyl)cyclopropyl]methoxy]-6-[(1R,5S)-3,8-diazabicyclo[3.2.1]octan-3-yl]pyrimidin-4-yl]spiro[5,6-dihydrocyclopenta[b]thiophene-4,3′-azetidine]-3-carbonitrile] | 1 to 10 | 1 to 10 |  |  |
| CC1CC2(CN(c3nc(OC[C@@]45CCCN4C[C@H](F)C5)nc(N4CCCn5nc(C(=O)N(C)C)c(Cl)c5C4)c3C#N)C2)c2c1sc(N)c2C#N (stereo partly drawn) [Compound 14, 5-[6-(2-amino-3-cyano-6-methyl-spiro[5,6-dihydrocyclopenta[b]thiophene-4,3′-azetidine]-1′-yl)-5-cyano-2-[[(2R,8S)-2-fluoro-1,2,3,5,6,7-hexahydropyrrolizin-8-yl]methoxy]pyrimidin-4-yl]-3-chloro-N,N-dimethyl-4,6,7,8-tetrahydropyrazolo[1,5-a][1,4]diazepine-2-carboxamide] | 10 to 100 | 1 to 10 |  |  |
| N#Cc1c(N2C[C@H]3CC[C@@H](C2)N3)nc(OCC2(CN3CCC(F)(F)CC3)CC2)nc1N1CC2(CCc3sc(N)c(C#N)c32)C1 [Compound 34, 2-amino-1′-[5-cyano-6-(3,8-diazabicyclo[3.2.1]octan-3-yl)-2-[[1-[(4,4-difluoro-1-piperidyl)methyl]cyclopropyl]methoxy]pyrimidin-4-yl]spiro[5,6-dihydrocyclopenta[b]thiophene-4,3′-azetidine]-3-carbonitrile] | 10 to 100 | 1 to 10 |  |  |
| CN(C)C(=O)c1nn2c(c1Cl)CN(c1nc(OC[C@@]34CCCN3C[C@H](F)C4)nc(N3CC4(CCCCc5sc(N)c(C#N)c54)C3)c1C#N)CCC2 [Compound 10, 5-[6-(2-amino-3-cyano-spiro[5,6,7,8-tetrahydrocyclohepta[b]thiophene-4,3′-azetidine]-1′-yl)-5-cyano-2-[[(2R,8S)-2-fluoro-1,2,3,5,6,7-hexahydropyrrolizin-8-yl]methoxy]pyrimidin-4-yl]-3-chloro-N,N-dimethyl-4,6,7,8-tetrahydropyrazolo[1,5-a][1,4]diazepine-2-carboxamide] | 10 to 100 | 10 to 100 |  |  |
| N#Cc1c(N2C[C@H]3CC[C@@H](C2)N3)nc(OCc2ccn[nH]2)nc1N1CC2(CCc3sc(N)c(C#N)c32)C1 [Compound 79, 2-amino-1′-[5-cyano-6-[(1R,5S)-3,8-diazabicyclo[3.2.1]octan-3-yl]-2-(1H-pyrazol-5-ylmethoxy)pyrimidin-4-yl]spiro[5,6-dihydrocyclopenta[b]thiophene-4,3′-azetidine]-3-carbonitrile] | 10 to 100 | 10 to 100 |  |  |
| N#Cc1c(N)sc2c1C1(CC2)CN(c2nc(OCC3(CN4CCOCC4)CC3)nc(N3C[C@H]4CC[C@@H](C3)N4)c2F)C1 [Compound 22, 2-amino-1′-[6-(3,8-diazabicyclo[3.2.1]octan-3-yl)-5-fluoro-2-[[1-(morpholinomethyl)cyclopropyl]methoxy]pyrimidin-4-yl]spiro[5,6-dihydrocyclopenta[b]thiophene-4,3′-azetidine]-3-carbonitrile] | 10 to 100 | 10 to 100 |  |  |
| CC1CC2(CN(c3nc(OCC4(CN5CCOCC5)CC4)nc(N4C[C@H]5CC[C@@H](C4)N5)c3C#N)C2)c2c1sc(N)c2C#N (stereo partly drawn) [Compound 45, 2-amino-1-[5-cyano-2-[[1-(morpholinomethyl)cyclopropyl]methoxy]-6-[(1R,5S)-3,8-diazabicyclo[3.2.1]octan-3-yl]pyrimidin-4-yl]-6-methyl-spiro[5,6-dihydrocyclopenta[b]thiophene-4,3′-azetidine]-3-carbonitrile] | 10 to 100 | 1 to 10 |  |  |
| Cc1nc(-c2nn3c(c2Cl)CN(c2nc(OC[C@@]45CCCN4C[C@H](F)C5)nc(N4CC5(CCc6sc(N)c(C#N)c65)C4)c2C#N)CCC3)n(C)n1 [Compound 85, 2-amino-1′-[6-[3-chloro-2-(2,5-dimethyl-1,2,4-triazol-3-yl)-4,6,7,8-tetrahydropyrazolo[1,5-a][1,4]diazepin-5-yl]-5-cyano-2-[[(2R,8S)-2-fluoro-1,2,3,5,6,7-hexahydropyrrolizin-8-yl]methoxy]pyrimidin-4-yl]spiro[5,6-dihydrocyclopenta[b]thiophene-4,3′-azetidine]-3-carbonitrile] | 100 to 1000 | 10 to 100 |  |  |
| C[C@H](Oc1nc(N2C[C@H]3CC[C@@H](C2)N3)c(C#N)c(N2CC3(CCc4sc(N)c(C#N)c43)C2)n1)[C@@H]1CCCN1C [Compound 88, 2-amino-1′-[5-cyano-6-[(1R,5S)-3,8-diazabicyclo[3.2.1]octan-3-yl]-2-[(1S)-1-[(2S)-1-methylpyrrolidin-2-yl]ethoxy]pyrimidin-4-yl]spiro[5,6-dihydrocyclopenta[b]thiophene-4,3′-azetidine]-3-carbonitrile] | 1000 to 10000 | 1000 to 10000 |  |  |
| CN(C)CC1(COc2nc(N3CC4CCC(C3)N4)c(C#N)c(N3CC4(CCc5sc(N)c(C#N)c54)C3)n2)CC1(F)F (centres unmarked) [Compound 74A, 2-amino-1′-[5-cyano-6-(3,8-diazabicyclo[3.2.1]octan-3-yl)-2-[[(1*)-1-[(dimethylamino)methyl]-2,2-difluoro-cyclopropyl]methoxy]pyrimidin-4-yl]spiro[5,6-dihydrocyclopenta[b]thiophene-4,3′-azetidine]-3-carbonitrile] |  |  | 1 to 10 | 1 to 10 |
| CN(C)C1(COc2nc(N3C[C@H]4CC[C@@H](C3)N4)c(C#N)c(N3CC4(CCc5sc(N)c(C#N)c54)C3)n2)CC1 [Compound 47, 2-amino-1′-[5-cyano-6-[(1R,5S)-3,8-diazabicyclo[3.2.1]octan-3-yl]-2-[[1-(dimethylamino)cyclopropyl]methoxy]pyrimidin-4-yl]spiro[5,6-dihydrocyclopenta[b]thiophene-4,3′-azetidine]-3-carbonitrile] | 100 to 1000 | 10 to 100 |  |  |
| CN(C)CC(F)(F)COc1nc(N2C[C@H]3CC[C@@H](C2)N3)c(C#N)c(N2CC3(CCc4sc(N)c(C#N)c43)C2)n1 [Compound 26, 2-amino-1′-[5-cyano-6-(3,8-diazabicyclo[3.2.1]octan-3-yl)-2-[3-(dimethylamino)-2,2-difluoro-propoxy]pyrimidin-4-yl]spiro[5,6-dihydrocyclopenta[b]thiophene-4,3′-azetidine]-3-carbonitrile] | 1000 to 10000 | 100 to 1000 |  |  |
| N#Cc1c(N2C[C@H]3CC[C@@H](C2)N3)nc(OCC2(CN3CCOCC3)CC2)nc1N1CC2(CCCc3sc(N)c(C#N)c32)C1 [Compound 41, 2-amino-1′-[5-cyano-2-[[1-(morpholinomethyl)cyclopropyl]methoxy]-6-[(1R,5S)-3,8-diazabicyclo[3.2.1]octan-3-yl]pyrimidin-4-yl]spiro[6,7-dihydro-5H-benzothiophene-4,3′-azetidine]-3-carbonitrile] | 10 to 100 | 1 to 10 |  |  |
| Cn1c(-c2cc3n(n2)CCCN(c2nc(OC[C@@]45CCCN4C[C@H](F)C5)nc(N4CC5(CCc6sc(N)c(C#N)c65)C4)c2C#N)C3)nc2ccccc21 [Compound 29, 2-amino-1′-[5-cyano-6-[2-(1-methylbenzimidazol-2-yl)-4,6,7,8-tetrahydropyrazolo[1,5-a][1,4]diazepin-5-yl]-2-[[(2R,8S)-2-fluoro-1,2,3,5,6,7-hexahydropyrrolizin-8-yl]methoxy]pyrimidin-4-yl]spiro[5,6-dihydrocyclopenta[b]thiophene-4,3′-azetidine]-3-carbonitrile] | 1000 to 10000 | 100 to 1000 |  |  |
